From US6448392B1, “Lipid derivatives of antiviral nucleosides: liposomal incorporation and method of use” (Chimerix, Inc., priority 1985, dated 2002)
“And” between values parts separate entries of the source, which are not always exact repeats. Equal entries are not always repeated. Structures can show the parent of a compound that is named as a salt. Where two headings read alike, the source gives them in different places.

Legend:
HIV (LAV-1) = experiment: HIV plaque formation in HT4-6C cells (CD4+ HeLa cells) infected with LAV-1; assay type: cell-based
Experimental: In this experiment the compound of Example 7 (1-O- stearoylglycero-rac-3-phospho-5′-(3′-deoxy, 3′-azido)thymidine) was incorporated into liposomes containing 10 mole percent of the liponucleotide as indicated in Example 8. This material was diluted with RPMI medium to the desired concentration and added to HT4-6C cells (CD4+ HeLa cells) obtained from Dr. Bruce Chesbro of the Rocky Mountain National Laboratories (Hamilton, Mont.) which had been infected with LAV-1 as noted earlier in this example. After a 3 day incubation at 37° C., the cells were washed with PBS, fixed and stained with crystal violet and the plaques were counted.
PalmitoylAZT was incorporated into liposomes as noted in Example 8 and incubated with LAV-1 infected HT4-6C cells as noted in Examples 10 and 11. 0.8 uM palmitoylAZT inhibited plaque formation by 25% (134 plaques versus 176 in the untreated control).

HSV-1 = experiment: Herpes simplex virus plaque reduction assay, HSV-1 in Wi-38 cells; assay type: cell-based, Herpes simplex virus type 1; settings: for IC50: HSV-1 infected Wi-38 cells, plaque reduction, read-out: concentration which produces 50% inhibition
Experimental: Wi-38 cells were obtained from American Type Culture Collection (Rockville, Md. 20852) and grown in Dulbecco's minimum essential medium (DMEM) with 10% fetal calf serum (FCS). The cells were grown in 250 cm square bottles until reaching confluence.
Herpes simplex virus (HSV) type 1 (HSV-1) and type 2 (HSV-2) were obtained from the American Type Culture Collection. Both virus stocks were prepared in Wi-38 cells; extensive cytopathic effects (CPD) were observed when the stock virus was harvested by a single freezing and thawing and the cell debris was clarified by low speed centrifugation (2000 rpm). Supernatant fluids containing the virus were aliquoted into small vials and stored at −80° C. Both HSV-1 and HSV-2 stocks were titered in Wi-38 cells before use in the experiments.
The plaque reduction assay was used to measure the antiviral effect of phosphatidylacyclovir or free ACV. Wi-38 cells were trypsinized with 0.25% trypsin for 5 min. The cells were harvested and centrifuged to remove residual trypsin and the cell pellet was resuspended in DMEM with 10% FCS. The Wi-38 cells were plated in a 96 well plate ([…] cells/well) for one hour. The infected cells were then treated with phosphatidylacyclovir or ACV. The antiviral agents were prepared in stock solutions which were then diluted two-fold with 2% FBS in DMEM containing 0.5% methylcellulose. 100 μl of each diluted antiviral agent was added into each well of HSV infected cells.
The control and drug-treated cell cultures were incubated in a 37° C. incubator with 5% carbon dioxide for 24 hours. […] The dye was rinsed off with tap water and the plate was dried and plaques were counted. The antiviral effect of ACV or phosphatidylacyclovir was determined by measurement of plaque reduction as shown in the example below.

HIV in CEM tk- cells = experiment: Inhibition of HIV p24 production in thymidine kinase deficient CEM tk- cells; assay type: cell-based; settings: Experiment H637-1b, AZT 0.2 to 100 uM
Experimental: (§1) The human T lymphoblastoid cell line, CCRG-CEM (hereafter referred to as CEM), was grown in RPMI 1640 medium containing 100 U/ml penicillin G, 100 ug/ml streptomycin, 2 mM glutamine and 10% fetal bovine serum (Hyclone Laboratories, Logan, Utah). Cells were infected with the LAV-1 strain (L. Montagnier, Paris, France) at a multiplicity of infection of one tissue culture 50% infectious dose (TCID50)/cell for 60 minutes at 37° C. in medium containing […]. CEM cells were infected in suspension at 6×10^4 cells/ml, washed three times by centrifugation and resuspension and then distributed in 96-well plates at 6×10^4 cells/well before addition of medium containing the liposomal antiretroviral liponucleotide drugs.
(§2) Antiviral activity was assayed after 3 days by the inhibition of the production of HIV p24 (gag) antigen in the cell free culture medium of the infected cells exposed to different concentrations of drug; p24 antigen was measured by ELISA (Abbott Laboratories, Chicago, Ill.) according to the manufacturer's instructions. The data are the average of two determinations and are expressed as percentage of a control incubated in the absence of drugs.
In this experiment, CEM cells were replaced with mutant cells (provided by Dr. Dennis Carson, Scripps Clinic, San Diego, Calif.) which lack the thymidine kinase enzyme (CEM tk−).

[1] = tested on: HIV in CEM (wild type) cells; experiment: Experiment I276: antiviral protection of CEM cells by preincubation, p24 in supernates; assay type: cell-based; settings: 3 day preincubation; 24 and 48 hours in normal media after removal of drug
Experimental: The cells were then washed twice with PBS, and fresh RPMI media added. Each group of cells was then divided into three batches. One batch was immediately infected with HIV, as noted above; after washing away unattached HIV, the sample was allowed to incubate in media alone for 3 days. Two other batches were allowed to incubate in media alone for either 24 or 48 hours to allow any intracellular antiviral agent present to become depleted. Then they were infected with HIV, the cells washed free of virus, and fresh RPMI media added. After 3 days of further incubation, the supernates of all batches were tested for the presence of p24 protein.
CEM cells were subjected to HIV infection without preincubation; drug was added following HIV infection as indicated, and the cells were incubated for 3 days.
After a further incubation for 3 days, p24 was measured.

HIV (LAV-1 strain) = assay type: cell-based; settings: for inhibition of HIV p24 production: Experiment H747-1b, CEM cells; for EC50: CEM wild type
Experimental: 6.42 micromoles of dioleoylphosphatidylcholine, 3.85 micromoles of cholesterol, 1.28 micromoles of dioleoylphosphatidylglycerol and 1.28 micromoles of dimyristoylphosphatidyl-azidothymidine were mixed in a sterile 2.0 ml glass vial and the solvent was removed in vacuo in a rotary evaporator. In some experiments, dimyristoylphosphatidylazidothymidine was replaced with either dimyristoylphosphatidyldideoxythymidine, dimyristoylphosphatidyldideoxycytidine or azidothymidine diphosphate dimyristoylglycerol; control liposomes were prepared by omitting the antiviral liponucleotide. The dried film was placed under high vacuum overnight at room temperature to remove traces of solvent. The lipid film was hydrated at 30° C. with 0.3 ml of sterile 10 mM sodium acetate buffer (pH 5.0) containing isotonic dextrose and the ampule was sealed. The mixture was vortexed intermittently for 10 minutes followed by sonication using a Heat Systems Ultrasonics sonicator with a cup horn generator (431B) at output control setting #9 for 90 to 120 minutes at which time the sample is clarified. This sonicated preparation was diluted with sterile RPMI buffer and added to the tissue culture wells at the concentration indicated.
as §1, §2

[2] = 10 uM liponucleotide in liposomes, 3 day incubation
[3] = Experiment H533-1, liposomes containing 10 mole percent liponucleotide, p24 after 3 days, read-out: amount of drug required to reduce virus production by 50% (E.D. 50)
[4] = Experiment H805-1, liposomes, p24, read-out: ED50 (the source's name)

Compound: CCCCCCCCCCCCCCCCCC(=O)OCC(O)COP(=O)(O)OC[C@H]1O[C@@H](n2cc(C)c(=O)[nH]c2=O)C[C@@H]1N=[N+]=[N-] (mixture of isomers) [Example 7, 1-O-stearoylglycero-rac-3-phospho-5′-(3′-azido-3′-deoxy)thymidine]
- % of Untreated Control (HIV (LAV-1); 0.0316 uM): 78%
- Plaques, Average (HIV (LAV-1); 0.0316 uM): 43
- % of Untreated Control (HIV (LAV-1); 0.100 uM): 71%
- Plaques, Average (HIV (LAV-1); 0.100 uM): 39
- % of Untreated Control (HIV (LAV-1); 0.316 uM): 58%
- Plaques, Average (HIV (LAV-1); 0.316 uM): 32
- % of Untreated Control (HIV (LAV-1); 1.0 uM): 29%
- Plaques, Average (HIV (LAV-1); 1.0 uM): 16
- % of Untreated Control (HIV (LAV-1); 3.16 uM): 13%
- Plaques, Average (HIV (LAV-1); 3.16 uM): 7
- % of Untreated Control (HIV (LAV-1); [2]): 2%
- Plaques, Average (HIV (LAV-1); [2]): 1
- IC50 (HIV (LAV-1); HT4-6C cells infected with LAV-1, liposomes, read-out: concentration required to produce 50% inhibition of HIV plaque formation): ~0.35 µM

Compound: CCCCCCCCCCCCCC(=O)OCC(COP(=O)(O)OCCOCn1cnc2c(=O)[nH]c(N)nc21)OC(=O)CCCCCCCCCCCCC (stereo in doubt) [PhosphatidylACV, dimyristoylphosphatidylacycloguanosine]
- IC50 (HSV-1): 2 µM
- % no Drug (HSV-1; PhosphatidylACV 0.84 uM): 91%
- plaques (determinations 1 and 2) (HSV-1; PhosphatidylACV 0.84 uM): 24 and 26
- plaques, mean (HSV-1; PhosphatidylACV 0.84 uM): 25
- % no Drug (HSV-1; PhosphatidylACV 1.67 uM): 67%
- plaques (determinations 1 and 2) (HSV-1; PhosphatidylACV 1.67 uM): 17 and 20
- plaques, mean (HSV-1; PhosphatidylACV 1.67 uM): 18.5
- % no Drug (HSV-1; PhosphatidylACV 3.3 uM): 40%
- plaques (determinations 1 and 2) (HSV-1; PhosphatidylACV 3.3 uM): 10 and 12
- plaques, mean (HSV-1; PhosphatidylACV 3.3 uM): 11
- % no Drug (HSV-1; PhosphatidylACV 6.7 uM): 27%
- plaques (determinations 1 and 2) (HSV-1; PhosphatidylACV 6.7 uM): 6 and 9
- plaques, mean (HSV-1; PhosphatidylACV 6.7 uM): 7.5
- % no Drug (HSV-1; PhosphatidylACV 13.4 uM): 18%
- plaques (determinations 1 and 2) (HSV-1; PhosphatidylACV 13.4 uM): 4 and 6
- plaques, mean (HSV-1; PhosphatidylACV 13.4 uM): 5
- % no Drug (HSV-1; PhosphatidylACV 27 uM): 9%
- plaques (determinations 1 and 2) (HSV-1; PhosphatidylACV 27 uM): 2 and 3
- plaques, mean (HSV-1; PhosphatidylACV 27 uM): 2.5
- % no Drug (HSV-1; PhosphatidylACV 54 uM): 0%
- plaques (determinations 1 and 2) (HSV-1; PhosphatidylACV 54 uM): 0
- plaques, mean (HSV-1; PhosphatidylACV 54 uM): 0
- % no Drug (HSV-1; PhosphatidylACV 107 uM): 0%
- plaques (determinations 1 and 2) (HSV-1; PhosphatidylACV 107 uM): 0
- plaques, mean (HSV-1; PhosphatidylACV 107 uM): 0

Compound: Nc1nc2c(ncn2COCCO)c(=O)[nH]1 [Acyclovir, Acycloguanosine, reference compound]
- % no Drug (HSV-1; Acyclovir 0.155 uM): 73%
- plaques (determinations 1 and 2) (HSV-1; Acyclovir 0.155 uM): 18 and 22
- plaques, mean (HSV-1; Acyclovir 0.155 uM): 20
- % no Drug (HSV-1; Acyclovir 0.31 uM): 65%
- plaques (determinations 1 and 2) (HSV-1; Acyclovir 0.31 uM): 17 and 19
- plaques, mean (HSV-1; Acyclovir 0.31 uM): 20
- % no Drug (HSV-1; Acyclovir 0.625 uM): 26%
- plaques (determinations 1 and 2) (HSV-1; Acyclovir 0.625 uM): 8 and 6
- plaques, mean (HSV-1; Acyclovir 0.625 uM): 7
- % no Drug (HSV-1; Acyclovir 1.25 uM): 13%
- plaques (determinations 1 and 2) (HSV-1; Acyclovir 1.25 uM): 4 and 3
- plaques, mean (HSV-1; Acyclovir 1.25 uM): 3.5
- % no Drug (HSV-1; Acyclovir 2.5 uM): 0%
- plaques (determinations 1 and 2) (HSV-1; Acyclovir 2.5 uM): 0
- plaques, mean (HSV-1; Acyclovir 2.5 uM): 0
- % no Drug (HSV-1; Acyclovir 5 uM): 0%
- plaques (determinations 1 and 2) (HSV-1; Acyclovir 5 uM): 0
- plaques, mean (HSV-1; Acyclovir 5 uM): 0
- % no Drug (HSV-1; Acyclovir 10 uM): 0%
- plaques (determinations 1 and 2) (HSV-1; Acyclovir 10 uM): 0
- plaques, mean (HSV-1; Acyclovir 10 uM): 0
- IC50 (HSV-1; Human alphaherpesvirus 1): 0.4 µM

Compound: Cc1cn([C@H]2C[C@H](N=[N+]=[N-])[C@@H](CO)O2)c(=O)[nH]c1=O [Example N1, 3′-azido-3′-deoxythymidine, reference compound]
- effect on p24 production (HIV in CEM tk- cells): completely without effect
- protection from HIV after removal of the drug [1]: failed to protect the cells from HIV infection
- effectiveness in reducing p24, free AZT versus liponucleotide (HIV (LAV-1 strain); Experiment H747-1a, low concentrations below 0.1 uM): more effective than the liponucleotide

Compound: Cc1cn([C@H]2CC[C@@H](CO)O2)c(=O)[nH]c1=O [Example N2, 2′,3′-dideoxythymidine, reference compound]
- inhibition of HIV p24 production (HIV (LAV-1 strain)): weak inhibitor of HIV p24 production

Compound: CCCCCCCCCCCCCC(=O)OC[C@@H](COP(=O)(O)OC[C@@H]1CC[C@H](n2cc(C)c(=O)[nH]c2=O)O1)OC(=O)CCCCCCCCCCCCC [LN2, 1,2-Dimyristoylglycerophospho-5′-(3′-deoxy)thymidine, Monosodium Salt]
- effect on p24 production (HIV in CEM tk- cells): capable of reducing p24 production
- EC50 (HIV (LAV-1 strain); [3]): 30 µM
- inhibition of HIV p24 production (HIV (LAV-1 strain)): somewhat more effective than the free nucleoside
- EC50 (HIV (LAV-1 strain); [4]): 20 µM

Compound: CCCCCCCCCCCCCC(=O)OCC(COP(=O)(O)OCC1CCC(n2ccc(N)nc2=O)O1)OC(=O)CCCCCCCCCCCCC (stereo not drawn) [LN3, 1,2-dimyristoylglycerophospho-5′-(3′-dideoxy)cytidine]
- EC50 (HIV (LAV-1 strain); [4]): 1.1 µM

Compound: CCCCCCCCCCCCCC(=O)OCC(COP(=O)(O)OP(=O)(O)OCC1OC(n2cc(C)c(=O)[nH]c2=O)CC1N=[N+]=[N-])OC(=O)CCCCCCCCCCCCC (stereo not drawn) [LN4, azidothymidine diphosphate dimylristoylglycerol]
- EC50 (HIV (LAV-1 strain); [3]): 8 µM

Compound: CCCCCCCCCCCCCCCC(=O)OC[C@H]1O[C@@H](n2cc(C)c(=O)[nH]c2=O)C[C@@H]1N=[N+]=[N-] [PalmitoylAZT, 5′-palmitoyl(3′-deoxy-3′-azido)thymidine]
- plaques (HIV (LAV-1); 0.8 uM in liposomes, 176 in the untreated control): 134
- inhibition of plaque formation (HIV (LAV-1); 0.8 uM in liposomes, LAV-1 infected HT4-6C cells): 25%
